Measured values taken from patent publication US20160115540A1, “PRODRUGS AND DRUGS” (Biogen MA Inc., priority 2013, published 2016).
Structures can show the parent of a compound that is named as a salt.

System: kidney
Assay: Transcriptional profiling on Affymetrix GeneChips, single dose, naïve mice: kidney
Type: in vivo, C57BL/6 mice
Conditions: 100MMF-vs-Veh
Experimental: Treated mice were sacrificed at 2, 7, or 12 hours. Tissues (liver, spleen, kidney, jejunum, cortex, hippocampus, striatum and whole blood) were collected and analyzed by transcriptional profiling on mouse Affymetrix GeneChips.
Tissues (liver, spleen, kidney, jejunum, cortex, hippocampus, striatum and whole blood) were collected and analyzed by transcriptional profiling on mouse Affymetrix GeneChips.
Animals were exposed to CO2 and whole blood collected via cardiac puncture. Two 100 μl aliquots of whole blood were collected in 1.5 mL microcentrifuge tubes and snap frozen in liquid nitrogen. Peripheral (liver, spleen, kidney and jejunum) and CNS brain (cerebellum, hippocampus, striatum and cortex) tissues were harvested and snap frozen in liquid nitrogen, with special care taken to collect tissues of similar size and from the same location. All samples were stored at −80° C. until RNA extraction was conducted.
For RNA preparation, frozen tissues were placed in 2 mL RNAse-free 96-well blocks with 1.5 mL QIAzol Lysis Reagent (QIAgen) and a 3.2 mm stainless steel bead (BioSpec Products, Bartlesville, Okla.). Tissues were disrupted for four cycles of 45 seconds in a Mini-Beadbeater (Biospec Products). RNA was extracted in chloroform and the aqueous phase was mixed with an equal volume of 70% ethanol. Extracted RNA was applied to RNeasy 96 plates and purified by the spin method according to the manufacturer's protocol (RNeasy 96 Universal Tissue Protocol, QIAgen, Hilden Germany).
Automated sample amplifications and biotin labelings were carried out using the NuGEN Ovation RNA Amplification system V2 (Cat #3100), Ovation WB reagent (Cat #1300) and Encore Biotin module (Cat #4200) (NuGEN Technologies, Inc, San Carlos, Calif.) according to manufacturer's recommendations using an Arrayplex automated liquid handler (Beckman Coulter, Indianapolis, Ind.). Two micrograms of biotin labeled sscDNA probe were hybridized to Affymetrix GeneChip Affymetrix HT_MG-430_PM plate arrays with modified conditions as described in Allaire et al. Washing and staining of the hybridized arrays were completed as described in the GeneChip Expression analysis technical manual for HT plate arrays using the Genechip® Array Station (Affymetrix, Santa Clara, Calif.) with modifications as described in Allaire et al. The processed GeneChip® plate arrays were scanned using GeneTitan scanner (Affymetrix, Santa Clara, Calif.).
Affymetrix scans were subject to quality control (QC) measures. These tests included a visual inspection of the distribution of raw signal intensities and an assessment of RNA degradation, relative log expression (RLE), and normalized unsealed standard error (NUSE). All sample scans that passed these QC metrics were included in the analysis.
All CEL files were subjected to GC-content-based Robust Multi-array Average (GCRMA) normalization (version 2.20.0) (Irizarry R A, et al. Nucleic Acids Res 2003; 31:e15; Li C, et al. Genome Biol 2001; 2:[…]0032). Expression levels were log (base 2) transformed.
All calculations and analyses were carried out using R (version 2.11.1) and Bioconductor computational tools (Gentleman R. Springer Science+Business Media 2005).

COC(=O)/C=C/C(=O)O [MMF, monomethyl fumarate]
FC 1456319_PM_at (2 h): −2.06 | FC 1456955_PM_at (2 h): 1.60 | FC 1457189_PM_at (2 h): −1.70 | FC 1457586_PM_at (2 h): 1.61 | FC 1458096_PM_at (2 h): −1.87 | FC 1458798_PM_at (2 h): −1.56 | FC 1459091_PM_at (2 h): 2.78 | FC 1459358_PM_at (2 h): 1.56 | FC 1459516_PM_at (2 h): 1.71 | FC 1459774_PM_at (2 h): 1.63 | FC A330023F24Rik 1460033_PM_at (2 h): 1.50 | FC AA986715 1459467_PM_at (2 h): 1.68 | FC Akr1c19 (1455454_PM_at) (2 h): 1.56 | FC Ankrd11 1458452_PM_at (2 h): 1.56 | FC Arl5b 1455166_PM_at (2 h): 1.64 | FC BC038331 1458295_PM_at (2 h): −1.57 | FC Bcl7a 1458503_PM_at (2 h): −1.54 | FC Cggbp1 1455658_PM_at (2 h): 1.51 | FC Gclc (1455959_PM_s_at) (2 h): 1.53 | FC LOC676974 1456909_PM_at (2 h): 1.57 | FC LOC100504796 1457129_PM_at (2 h): −1.55 | FC Lonrf1 1455665_PM_at (2 h): 1.98 | FC Nufip2 1455387_PM_at (2 h): 1.61 | FC Per3 1458176_PM_at (2 h): −1.57 | FC Phf13 1455175_PM_at (2 h): 1.51 | FC Pkp2 1460511_PM_at (2 h): 1.67 | FC Ptprg 1456070_PM_at (2 h): −2.31 | FC Snx29 1456922_PM_at (2 h): −1.74 | FC Tnfsf10 1459913_PM_at (2 h): −1.60 | FC Trib3 1456225_PM_x_at (2 h): 1.56 | FC Zfp295 1457552_PM_at (2 h): 1.74 | FC 1110032F04Rik 1456509_PM_at (7 h): 4.65 | FC 1200003I10Rik /// 1200015M12Rik /// A130040M12Rik /// E430024C06Rik 1427932_PM_s_at (7 h): 1.63 | FC 1300002K09Rik 1453234_PM_at (7 h): 1.98 | FC 1444265_PM_at (7 h): 1.53 | FC 1445668_PM_at (7 h): 1.55 | FC 1447396_PM_at (7 h): −1.73 | FC 1457594_PM_at (7 h): −1.52 | FC 1459091_PM_at (7 h): 3.52 | FC 2610034E01Rik 1460483_PM_at (7 h): 1.56 | FC Abcc4 1443870_PM_at (7 h): 2.09 | FC Abhd15 1453474_PM_at (7 h): 1.64 | FC Acsl4 1451828_PM_a_at (7 h): 1.78 | FC Agps 1434919_PM_at (7 h): −1.68 | FC Agxt2l1 1452975_PM_at (7 h): −1.74 | FC Akr1b8 (1448894_PM_at) (7 h): 1.86 | FC Akr1c19 (1455454_PM_at) (7 h): 1.97 | FC Alas1 1424126_PM_at (7 h): 1.51 | FC Alcam 1426300_PM_at (7 h): 2.66 | FC Alcam 1426301_PM_at (7 h): 2.09 | FC Alcam 1437467_PM_at (7 h): 2.00 | FC Aldh1a7 (1418601_PM_at) (7 h): 2.16 | FC Aox1 (1419435_PM_at) (7 h): 2.50 | FC Asns 1433966_PM_x_at (7 h): 2.13 | FC Asns 1451095_PM_at (7 h): 2.23 | FC Atp13a3 1442145_PM_at (7 h): 1.52 | FC BC037032 1444682_PM_at (7 h): 1.69 | FC Bcat1 1430111_PM_a_at (7 h): −1.59 | FC Bcat1 1450871_PM_a_at (7 h): −1.83 | FC Bcat1 1455699_PM_at (7 h): −2.29 | FC Blvrb (1451386_PM_at) (7 h): 1.83 | FC Btg1 1442018_PM_at (7 h): 1.60 | FC Cbr1 (1460196_PM_at) (7 h): 1.58 | FC Cbr3 (1427912_PM_at) (7 h): 9.54 | FC Cenpe 1435005_PM_at (7 h): −1.60 | FC Cml3 1421609_PM_a_at (7 h): −1.64 | FC Copg2as2 1427123_PM_s_at (7 h): 1.56 | FC Ctps 1416563_PM_at (7 h): 1.57 | FC Cul9 1439866_PM_at (7 h): −1.52 | FC Cyp51 1422533_PM_at (7 h): −1.54 | FC Cyp51 1422534_PM_at (7 h): −1.59 | FC D16Ertd778e 1445089_PM_at (7 h): −1.87 | FC D330040H18Rik 1444432_PM_at (7 h): 1.77 | FC Dbp (1418174_PM_at) (7 h): −1.73 | FC Dbp (1438211_PM_s_at) (7 h): −1.63 | FC Ddit4l 1439332_PM_at (7 h): 1.83 | FC Ddit4l 1444139_PM_at (7 h): 1.85 | FC Ddit4l 1451751_PM_at (7 h): 2.62 | FC Dnase2a (1430135_PM_at) (7 h): 2.20 | FC Dusp5 1437199_PM_at (7 h): 1.74 | FC Eif4ebp1 1434976_PM_x_at (7 h): 1.56 | FC Endou 1449937_PM_at (7 h): 1.52 | FC Esr1 1460591_PM_at (7 h): −1.54 | FC Fam107a 1435918_PM_at (7 h): −1.77 | FC Fbxl2 1428427_PM_at (7 h): −1.68 | FC Fgf1 1441042_PM_at (7 h): −1.71 | FC Fgf1 1450869_PM_at (7 h): −1.76 | FC Fgfbp1 1419086_PM_at (7 h): 1.73 | FC Frem2 1457038_PM_at (7 h): −1.66 | FC G0s2 1448700_PM_at (7 h): 1.50 | FC G6pd2 /// G6pdx 1422327_PM_s_at (7 h): 1.86 | FC G6pdx (1448354_PM_at) (7 h): 1.75 | FC Gclc (1424296_PM_at) (7 h): 1.87 | FC Gclc (1455959_PM_s_at) (7 h): 1.81 | FC Gclm 1418627_PM_at (7 h): 1.64 | FC Gdf15 1418949_PM_at (7 h): 1.98 | FC Gimap3 1449220_PM_at (7 h): −1.51 | FC Gjb1 1448766_PM_at (7 h): 1.50 | FC Gk5 1436210_PM_at (7 h): 1.55 | FC Gm129 1435188_PM_at (7 h): −2.12 | FC Gm3776 /// Gsta1 /// Gsta2 1421041_PM_s_at (7 h): 1.63 | FC Gpr135 1441944_PM_s_at (7 h): 1.66 | FC Gpr135 1459274_PM_at (7 h): 1.53
